Measured values taken from patent US10344025B2, “GLS1 inhibitors for treating disease” (Board of Regents, The University of Texas System, priority 2014, dated 2019).
pEC50, pIC50: −log10 of the molar value.

Columns and labels:
[1] = biological target: purified recombinant human GAC (GLS1) (Homo sapiens (Human), UniProt O94925); assay: GLS1 Enzymatic Activity Assay (dual-coupled enzymatic assay, resorufin/Amplex UltraRed readout); format: biochemical;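 also: glutamate from GAC coupled via glutamate oxidase and peroxidase to resorufin, read as fluorescence (ex 530, em 590 nm) kinetically or at 20 min, four-parameter logistic IC50 fit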
purified recombinant human GAC (GLS1), sequence (O94925 other isoform, or with tags, fused parts or gaps): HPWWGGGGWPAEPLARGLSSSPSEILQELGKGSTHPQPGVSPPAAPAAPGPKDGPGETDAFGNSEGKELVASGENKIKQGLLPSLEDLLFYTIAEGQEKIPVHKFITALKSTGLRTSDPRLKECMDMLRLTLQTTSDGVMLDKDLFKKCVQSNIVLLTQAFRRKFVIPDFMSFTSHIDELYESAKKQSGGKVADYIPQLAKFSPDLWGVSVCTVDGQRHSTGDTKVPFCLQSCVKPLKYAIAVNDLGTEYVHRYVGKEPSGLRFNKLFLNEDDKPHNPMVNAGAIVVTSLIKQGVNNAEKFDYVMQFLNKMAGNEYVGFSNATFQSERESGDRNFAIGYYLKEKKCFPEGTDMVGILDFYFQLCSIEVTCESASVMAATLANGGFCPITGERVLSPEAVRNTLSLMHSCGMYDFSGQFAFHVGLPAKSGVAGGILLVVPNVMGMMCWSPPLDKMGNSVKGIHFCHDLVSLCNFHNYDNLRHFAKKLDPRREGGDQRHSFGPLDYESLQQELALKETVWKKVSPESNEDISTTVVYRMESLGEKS

[2] = tested on: A549 cells; assay: Proliferation Assay (A549 viability, Cell Titer Fluor, 72 hours); format: cell-based; details: Homo sapiens, A549, 72 h
In short: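 Cell Titer Fluor fluorescence after 72 h compound treatment (0.5% DMSO, 37 °C, 5% CO2) of A549 cells plated 24 h earlier at 1000/well. Four-parameter logistic fitting gave IC50.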

pIC50 [1] | pEC50 [2] | Compound
5.30 to 6.30 | < 5.30 | O=C(Cc1cccc(OC(F)(F)F)c1)Nc1ccc(CCCCn2cc(C(=O)NCC(CO)CO)nn2)nn1 [Example 552, N-[3-hydroxy-2-(hydroxymethyl)propyl]-1-[4-(6-{2-[3-(trifluoromethoxy)phenyl]acetamido}pyridazin-3-yl)butyl]-1H-1,2,3-triazole-4-carboxamide]
> 7.00 | > 7.00 | O=C(NCc1ccccn1)c1cn(CCC(F)Cn2cc(C(=O)NCc3cc(OC(F)(F)F)ccc3F)nn2)nn1 (stereo not drawn) [Example 373, 1-{3-fluoro-4-[4-({[2-fluoro-5-(trifluoromethoxy)phenyl]methyl}carbamoyl)-1H-1,2,3-triazol-1-yl]butyl}-N-(pyridin-2-ylmethyl)-1H-1,2,3-triazole-4-carboxamide]
> 7.00 | > 7.00 | O=C(Cc1ccccn1)Nc1nnc(CC[C@H](F)Cn2cc(C(=O)NCc3cc(OC(F)(F)F)ccc3F)nn2)s1 [Example 197, (S)-1-(2-fluoro-4-(5-(2-(pyridin-2-yl)acetamido)-1,3,4-thiadiazol-2-yl)butyl)-N-(2-fluoro-5-(trifluoromethoxy)benzyl)-1H-1,2,3-triazole-4-carboxamide]
> 7.00 | 6.30 to 7.00 | CNC(=O)c1cn(CC(F)CCn2cc(NC(=O)Cc3cccc(OC(F)(F)F)c3)nn2)nn1 (stereo not drawn) [Example 538, 1-[2-fluoro-4-(4-{2-[3-(trifluoromethoxy)phenyl]acetamido}-1H-1,2,3-triazol-1-yl)butyl]-N-methyl-1H-1,2,3-triazole-4-carboxamide]
6.30 to 7.00 | 6.30 to 7.00 | CNC(=O)c1cn(CC(F)CCc2nnc(C(=O)NCc3cccc(N4CCCCC4)c3)s2)nn1 (stereo not drawn) [Example 209, 5-(3-fluoro-4-(4-(methylcarbamoyl)-1H-1,2,3-triazol-1-yl)butyl)-N-(3-(piperidin-1-yl)benzyl)-1,3,4-thiadiazole-2-carboxamide]
> 7.00 | > 7.00 | O=C(NCc1cc(OC(F)(F)F)ccc1F)c1cn(CC(F)CCc2nnc(C(=O)NCc3ccc(C(F)(F)F)cn3)s2)nn1 (stereo not drawn) [Example 465, 5-{3-fluoro-4-[4-({[2-fluoro-5-(trifluoromethoxy)phenyl]methyl}carbamoyl)-1H-1,2,3-triazol-1-yl]butyl}-N-{[5-(trifluoromethyl)pyridin-2-yl]methyl}-1,3,4-thiadiazole-2-carboxamide]
> 7.00 | > 7.00 | O=C(NCc1ccc(C(F)(F)F)nc1)c1cn(CCCCn2cc(C(=O)NCc3cccc(OC(F)(F)F)c3)nn2)nn1 [Example 82, 1-{4-[4-({[3-(trifluoromethoxy)phenyl]methyl}carbamoyl)-1H-1,2,3-triazol-1-yl]butyl}-N-{[6-(trifluoromethyl)pyridin-3-yl]methyl}-1H-1,2,3-triazole-4-carboxamide]
> 7.00 | > 7.00 | O=C(NCc1cccc(OC(F)(F)F)c1)c1cn(CCC(F)Cn2cc(C(=O)NCc3ccc(C(F)(F)F)nc3)nn2)nn1 (stereo not drawn) [Example 435, 1-{2-fluoro-4-[4-({[3-(trifluoromethoxy)phenyl]methyl}carbamoyl)-1H-1,2,3-triazol-1-yl]butyl}-N-{[6-(trifluoromethyl)pyridin-3-yl]methyl}-1H-1,2,3-triazole-4-carboxamide]
> 7.00 | 6.30 to 7.00 | O=C(NCc1ccccc1F)c1cn(CCC(F)Cn2cc(C(=O)NCc3cc(C(F)(F)F)ccn3)nn2)nn1 (stereo not drawn) [Example 454, 1-[2-fluoro-4-(4-{[(2-fluorophenyl)methyl]carbamoyl}-1H-1,2,3-triazol-1-yl)butyl]-N-{[4-(trifluoromethyl)pyridin-2-yl]methyl}-1H-1,2,3-triazole-4-carboxamide]
> 7.00 | 6.30 to 7.00 | O=C(Cc1cc(OC(F)(F)F)ccc1F)Nc1ccc(CCCCc2nnc(C(=O)NCCO)s2)nn1 [Example 597, 5-(4-(6-(2-(2-fluoro-5-(trifluoromethoxy)phenyl)acetamido)pyridazin-3-yl)butyl)-N-(2-hydroxyethyl)-1,3,4-thiadiazole-2-carboxamide]
5.30 to 6.30 | 5.30 to 6.30 | O=C(NCc1ccccc1)c1cn(CCCCc2nnc(C(=O)NCCO)s2)nn1 [Example 41, 5-{4-[4-(benzylcarbamoyl)-1H-1,2,3-triazol-1-yl]butyl}-N-(2-hydroxyethyl)-1,3,4-thiadiazole-2-carboxamide]
> 7.00 | > 7.00 | Cc1ccc(CNC(=O)c2nnc(CCC(F)Cn3cc(C(=O)NCc4cccc(OC(F)(F)F)c4)nn3)s2)cn1 (stereo not drawn) [Example 442, 5-{3-fluoro-4-[4-({[3-(trifluoromethoxy)phenyl]methyl}carbamoyl)-1H-1,2,3-triazol-1-yl]butyl}-N-[(6-methylpyridin-3-yl)methyl]-1,3,4-thiadiazole-2-carboxamide]
> 7.00 | > 7.00 | O=C(Cc1cc(OC(F)(F)F)ccc1F)Nc1cn(CCC(F)Cn2cc(C(=O)NCc3cc(C(F)(F)F)ccn3)nn2)nn1 (stereo not drawn) [Example 418, 1-[2-fluoro-4-(4-{2-[2-fluoro-5-(trifluoromethoxy)phenyl]acetamido}-1H-1,2,3-triazol-1-yl)butyl]-N-{[4-(trifluoromethyl)pyridin-2-yl]methyl}-1H-1,2,3-triazole-4-carboxamide]
> 7.00 | 6.30 to 7.00 | O=C(NCc1ccccn1)c1cn(CC(F)CCc2nnc(C(=O)NCc3cc(C(F)(F)F)ccn3)s2)nn1 (stereo not drawn) [Example 234, 5-(3-fluoro-4-(4-((pyridin-2-ylmethyl)carbamoyl)-1H-1,2,3-triazol-1-yl)butyl)-N-((4-(trifluoromethyl)pyridin-2-yl)methyl)-1,3,4-thiadiazole-2-carboxamide]
> 7.00 | > 7.00 | O=C(NCc1ncccc1F)c1cn(CCC(F)Cn2cc(C(=O)NCc3cc(OC(F)(F)F)ccc3F)nn2)nn1 (stereo not drawn) [Example 444, 1-{3-fluoro-4-[4-({[2-fluoro-5-(trifluoromethoxy)phenyl]methyl}carbamoyl)-1H-1,2,3-triazol-1-yl]butyl}-N-[(3-fluoropyridin-2-yl)methyl]-1H-1,2,3-triazole-4-carboxamide]
> 7.00 | > 7.00 | O=C(NCc1cccc(C2CC2)c1)c1cn(CCCCn2cc(C(=O)NCc3cncc(C(F)(F)F)c3)nn2)nn1 [Example 133, 1-[4-(4-{[(3-cyclopropylphenyl)methyl]carbamoyl}-1H-1,2,3-triazol-1-yl)butyl]-N-{[5-(trifluoromethyl)pyridin-3-yl]methyl}-1H-1,2,3-triazole-4-carboxamide]
5.30 to 6.30 | 5.30 to 6.30 | O=C(Cc1ccccn1)Nc1cn(CCCCn2cc(C(=O)NCc3cccnc3)nn2)nn1 [Example 321, 1-(4-{4-[2-(pyridin-2-yl)acetamido]-1H-1,2,3-triazol-1-yl}butyl)-N-(pyridin-3-ylmethyl)-1H-1,2,3-triazole-4-carboxamide]
> 7.00 | > 7.00 | O=C(NCc1cncc(C(F)(F)F)c1)c1cn(CC(F)CCc2nnc(C(=O)NCc3cccc(OC(F)(F)F)c3)s2)nn1 (stereo not drawn) [Example 482, 5-{3-fluoro-4-[4-({[5-(trifluoromethyl)pyridin-3-yl]methyl}carbamoyl)-1H-1,2,3-triazol-1-yl]butyl}-N-{[3-(trifluoromethoxy)phenyl]methyl}-1,3,4-thiadiazole-2-carboxamide]
